According to the supplement of paper PMC5579334:

How the values were obtained:
HS-PSS [1] = assay: relative IC50 (inflection point of fitted dose-response curve, CellTox-Green cytotoxicity, 72 h; top asymptote may be below 50%); higher = less potent
Outline: (§1)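 MPNST cell lines and primary human Schwann cells were incubated 72 h at 37 °C in 384-well plates holding five 10-fold compound dilutions. CellTox-Green was added before seeding at a final 1:1000 dilution and reported fluorescence from DNA released by disrupted cells. Signals were scaled to vehicle and positive-control wells, and cultures failing plate quality control were dropped. Drug sensitivity score and relative IC50 come from four-parameter logistic fits, with IC50 censored at the top concentration.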

HSC1 [2] = assay: as above
Outline: as §1

HSC2 [3] = assay: as above
Outline: as §1

STS26T [4] = assay: as above
Outline: as §1

HS-Sch-2 = assay: relative IC50 (inflection point of fitted dose-response curve, CellTiter-Glo viability, 72 h; top asymptote may be below 50% inhibition); higher = less potent
Outline: (§2)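 Viability was scored by CellTiter-Glo ATP luminescence, scaled from vehicle to positive-control wells, with duplicates averaged where present. The cells, MPNST lines and primary human Schwann cells at 750–1000 per well, sat 72 h at 37 °C, 5% CO2, in 384-well plates preprinted with each compound at five concentrations in 10-fold steps. Four-parameter logistic fits were run on the data. These fits give drug sensitivity score and relative IC50 censored at the top concentration, and percent inhibition is reported at the top concentration.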

HSC1 [5] = assay: as above
Outline: as §2

HSC2 [6] = assay: as above
Outline: as §2

S1507-2 = assay: as above
Outline: as §2

S462 = assay: as above
Outline: as §2

ST8814 [7] = assay: as above
Outline: as §2

STS26T [8] = assay: as above
Outline: as §2

YST-1 = assay: as above
Outline: as §2

ST8814 [9] = assay: relative IC50 (inflection point of fitted dose-response curve, CellTox-Green cytotoxicity, 72 h; top asymptote may be below 50%); higher = less potent
Outline: as §1

HS-PSS [10] = assay: relative IC50 (inflection point of fitted dose-response curve, CellTiter-Glo viability, 72 h; top asymptote may be below 50% inhibition); higher = less potent
Outline: as §2

SMILES | relative IC50 (HS-PSS [1]) [nM] | relative IC50 (HSC1 [2]) [nM] | relative IC50 (HSC2 [3]) [nM] | relative IC50 (STS26T [4]) [nM] | relative IC50 (HS-Sch-2) [nM] | relative IC50 (HSC1 [5]) [nM] | relative IC50 (HSC2 [6]) [nM] | relative IC50 (S1507-2) [nM] | relative IC50 (S462) [nM] | relative IC50 (ST8814 [7]) [nM] | relative IC50 (STS26T [8]) [nM] | relative IC50 (YST-1) [nM] | relative IC50 (ST8814 [9]) [nM] | relative IC50 (HS-PSS [10]) [nM]
Cn1cnc2c(F)c(Nc3ccc(Br)cc3Cl)c(C(=O)NOCCO)cc21 [Selumetinib] | > 10000 | > 10000 | > 10000 | > 10000 | 2030 | 2600 | 1710 | 301 | 736 | 727 | 240 | > 10000 | – | –
N#CCNC(=O)c1ccc(-c2ccnc(Nc3ccc(N4CCOCC4)cc3)n2)cc1 [Momelotinib] | > 10000 | 3370 | 3220 | – | 1640 | 1410 | 1330 | 3760 | 2740 | 1970 | 3110 | 1300 | > 10000 | 2500
Nc1nc2[nH]cnc2c(=S)[nH]1 [Thioguanine] | > 10000 | > 10000 | > 10000 | 2920 | 1120 | – | > 10000 | 2270 | 1200 | 642 | 717 | 1370 | – | 1450
O=C(O)CC[C@H]1CC[C@@](c2cc(F)ccc2F)(S(=O)(=O)c2ccc(Cl)cc2)CC1 [MK-0752] | > 1000 | > 1000 | > 1000 | > 1000 | – | – | – | > 1000 | > 1000 | > 1000 | > 1000 | > 1000 | > 1000 | > 1000
Nc1ncn([C@@H]2O[C@H](CO)[C@@H](O)[C@H]2O)c(=O)n1 [Azacitidine] | > 10000 | > 10000 | > 10000 | > 10000 | – | 2340 | 3320 | > 10000 | 2580 | – | 3840 | – | > 10000 | –
CC1(C)CNc2cc(NC(=O)c3cccnc3NCc3ccncc3)ccc21 [Motesanib] | > 10000 | > 10000 | > 10000 | > 10000 | > 10000 | > 10000 | – | > 10000 | > 10000 | > 10000 | > 10000 | – | > 10000 | > 10000
CN(c1ccccc1CNc1nc(Nc2ccc3c(c2)CC(=O)N3)ncc1C(F)(F)F)S(C)(=O)=O | – | – | – | 849 | 2440 | 209 | 326 | 1250 | 1010 | 1370 | 1420 | 1240 | – | 2360
C[C@]12O[C@H](C[C@]1(O)CO)n1c3ccccc3c3c4c(c5c6ccccc6n2c5c31)CNC4=O [Lestaurtinib] | > 1000 | – | – | – | 112 | 29.3 | 24.9 | 101 | 93.8 | 130 | 155 | 59.8 | 290 | 87.2
CN(C)CCN1C(=O)c2cccc3cc(N)cc(c23)C1=O [Amonafide] | 2150 | > 10000 | – | – | 1700 | 1350 | 1860 | 1360 | 1650 | 1690 | 2240 | 1020 | 3150 | 2410
Oc1nc(-c2ccc(C(F)(F)F)cc2)nc2c1CSCC2 [XAV-939] | > 10000 | > 10000 | > 10000 | – | > 10000 | 286 | 314 | 1580 | > 10000 | > 10000 | – | – | > 10000 | –
Cn1cc(C[C@@H](N)C(=O)O)c2ccccc21 [1-methyl-D-tryptophan aq] | – | > 5000 | > 5000 | – | – | > 5000 | > 5000 | > 5000 | > 5000 | > 5000 | > 5000 | – | > 5000 | –
Nc1ncnc2c1nc(Cl)n2[C@@H]1O[C@H](CO)[C@@H](O)[C@H]1O [8-chloro-adenosine] | > 50000 | > 50000 | > 50000 | 2820 | 2960 | 3550 | 3820 | 1890 | 1590 | 1240 | 2800 | 2580 | – | 6590
COc1ncc(-c2ccc3nccc(-c4ccnnc4)c3c2)cc1NS(=O)(=O)c1ccc(F)cc1F | – | > 1000 | > 1000 | – | – | 22.7 | 25.5 | 17.6 | 63.2 | 52.2 | 18.5 | – | 161 | –
Cn1c(=O)c(F)c(Nc2ccc(I)cc2F)c2c(=O)n(C[C@@H](O)CO)cnc21 [TAK-733] | > 1000 | > 1000 | > 1000 | – | 152 | 97.3 | 90.6 | 85 | 58.5 | 87.9 | 25.1 | – | 218 | 162
COc1cccc2c1C(=O)c1c(O)c3c(c(O)c1C2=O)C[C@@](O)(C(=O)CO)C[C@@H]3O[C@H]1C[C@H](N)[C@H](O)[C@H](C)O1 [Doxorubicin] | 367 | – | 346 | – | 133 | 83.2 | 109 | 72.5 | 71.2 | 130 | 81.2 | 54.9 | > 1000 | 199
